{
  "source": "patent US20200121699A1",
  "about": "“COMBINATION THERAPIES COMPRISING IMMUNO-ONCOLOGY AGENTS AND BELINOSTAT” (ONXEO, priority 2016, published 2020)",
  "key": {"4T1 breast cancer cells": {"test_system": "4T1 breast cancer cells", "experiment": "Orthotopic 4T1 breast cancer mouse model", "type": "in vivo, Balb/C mouse", "conditions": "4T1 in mammary fat gland; belinostat 80 mg/kg i.p. daily from day 8; antibodies 200 μg/mouse i.p.", "procedure": "The Belinostat treatment was formulated every one or two day.\nThe aPD1 treatment solutions were prepared on the days of the treatment (days 8, 12, 16 and 20).\nThe aCTLA4 treatment solutions were prepared on days 7, 11, 16 and 20 and stored at 4° C.\n4T1 breast cancer cells (5*10^5 cells per Balb/C mouse) were in occulated in the mammary fat gland of Balb/C females. The 4T1 (ATCC CRL-2539) cells were bought from ATCC and cultured in RPMI-1640 Medium containing 10% fetal bovine serum. Cells were passaged 5-10 times before in inoculation. Cells were detached with trypsin, washed twice in PBS, centrifuged and resuspended in PBS. Cell viability was checked by a staining with […] and cells were used when viability was higher than 95%. Cells were counted manually and adjusted to 5*10^6 cells per ml. Finally 100 μl were injected."}, "[1]": {"test_system": "Hepa129 murine hepatocellular carcinoma cells", "experiment": "Antitumor efficacy in subcutaneous Hepa129 hepatocellular carcinoma mouse model", "type": "in vivo, C3H mice", "conditions": "s.c. Hepa129 tumors, Beleodaq 90 mg/kg IP daily D7 to D27, antibodies 50 μg/mouse IP D7, D14", "procedure": "As tumor model, Hepa129 murine hepatocellular carcinoma cells implanted subcutaneously in C3H mice were used. Hepa129 cells were maintained in culture up to 3 passages before injection in mice. Cells were sub-cultured three days before the day of injection.\nThe day of cell injection, Hepa129 cells were harvested and centrifuged at 1800 rpm for 5 min, and resuspended in PBS. Cells were counted in 0.04% Trypan Blue for viability quantification. Cells were resuspended in the adequate volume of PBS in order to have 10^6 cells in 100 μL. […] were subcutaneously injected into the right flank of mice.\nWhen subcutaneous Hepa129 tumors reached a mean tumor diameter of about 5 mm (day 7), mice were allocated to treatment groups and identified individually by ear tags. Beleodaq® was administered IP daily at days 7 to 27 at 90 mg/kg. Antibodies Isotype control (2A3) and anti-CTLA-4 (9D9) (from BioXcell) were administered IP at days 7 and 14.\nTreatment allocation were performed as follows for antitumor efficacy study:\nAnimals were monitored and sacrificed when tumor diameter reached 17 mm. Each experiment was carried out twice with n=8 animals per group."}, "[2]": {"test_system": "irradiated Hepa129 tumor cells", "experiment": "IFN-gamma ELISPOT of spleen cells from treated tumor-bearing mice stimulated with irradiated tumor cells", "type": "in vivo, C3H mice", "conditions": "20-h ELISPOT, two-week treatment, versus the same antibody without Beleodaq", "procedure": "Treatment allocation were performed as follows for immune characterization study:\nA single experiment was carried out for each drug, using n=5 animals per group.\nLymphoid organs (spleen, lymph nodes) were obtained from sacrificed animals, homogenized and cell suspensions were used to measure the following parameters:\nELISPOT: measuring the number of IFN-gamma spot forming cells after co-culture of lymphocytes with irradiated Hepa129 tumor cells.\nTumor-bearing mice were treated during two weeks and sacrificed to obtain their spleen and analyze immune-related parameters. For these experiments mice received two antibody administrations (days 0 and 7) and Beleodaq® (daily) during the two-week treatment period.\nFunctional assays: Spleen cells were stimulated with irradiated tumor cells to analyze antitumor T cell responses measured as IFN-gamma production using a 20-h ELISPOT assay."}},
  "data": [
    {"smiles": "O=C(/C=C/c1cccc(S(=O)(=O)Nc2ccccc2)c1)NO", "note": "[Beleodaq®, (2E)-N-hydroxy-3-[3-(phenylsulfamoyl)phenyl]prop-2-enamide]", "values": [
      {"measurement": "apparent external tumor size", "setting": "4T1 breast cancer cells", "value": "reduced"},
      {"measurement": "mortality", "setting": "4T1 breast cancer cells", "value": "reduced"},
      {"measurement": "tumor growth", "setting": "[1]", "value": "did not modify"},
      {"measurement": "animal survival", "setting": "[1]; sacrificed when tumor diameter reached 17 mm", "value": "did not modify"},
      {"measurement": "antitumor T cell responses measured as IFN-gamma production", "setting": "[2]", "value": "no significant differences"}
    ]}
  ]
}
